Results published in paper PMC9794833, “Ligand recognition and activation of neuromedin U receptor 2” (Nature Communications, 2022).
Several values for one entry are separate records, joined by “and”; a condition that tells them apart may be missing. Equal values may be shown once. Read-outs that look alike come from different tables or passages of the source. Where a SMILES comes first, the peptide text is derived from it. [ ]: non-standard residue; d: D form. The star is where a group is joined. Propanoyl(3-cHex) = O=C(CCC1CCCCC1)*; Dap = NC[C@H](N)C(=O)O

Assays:
NMU2 [1] = molecular target: T1, NMU2 (Homo sapiens, UniProt Q9GZQ4); assay: TRUPATH Gαi1βγ biosensor assay, WT NMU2; format: cell-based; details: WT; for CPN 116–induced G protein activation of NMU2: single replicates, in % (unit assumed)
T1 construct: HA signal peptide (N); expressed in transfected cells; host or cells: HEK 293F
T1 sequence (Q9GZQ4 whole entry): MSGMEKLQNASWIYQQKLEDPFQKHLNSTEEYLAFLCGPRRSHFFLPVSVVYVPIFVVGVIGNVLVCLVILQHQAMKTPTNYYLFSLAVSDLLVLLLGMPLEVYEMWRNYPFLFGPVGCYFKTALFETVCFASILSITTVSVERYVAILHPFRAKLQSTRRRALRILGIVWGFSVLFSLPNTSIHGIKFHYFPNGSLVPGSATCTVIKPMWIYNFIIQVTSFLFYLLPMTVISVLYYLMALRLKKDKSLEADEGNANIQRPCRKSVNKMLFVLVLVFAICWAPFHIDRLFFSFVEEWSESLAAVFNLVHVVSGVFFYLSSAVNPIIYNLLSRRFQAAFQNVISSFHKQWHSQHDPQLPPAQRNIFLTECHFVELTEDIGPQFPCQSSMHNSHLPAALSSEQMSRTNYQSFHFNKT
Protocol: (§1) The plasmids of Gαi1, Gβ3, and Gγ9 used for the TRUPATH assay were purchased from Addgene (TRUPATH Kit, #1000000163). NMU2 constructs of WT and mutants were constructed into a PTT5 vector (Invitrogen) with an N-terminal HA signal peptide followed by a Flag tag. HEK 293F cells were transiently transfected with WT or mutants of NMU2, Gαi1, Gβ3, and Gγ9 at an […] ratio of 4:1:1:1 with a total of 3500 ng plasmid DNA using a transfection reagent (PEI MAX 2000, Polysciences) and cultivated at 37 °C with 5 % CO2. Cells were collected after 48-h transfection. The expression level of the receptor was measured by incubating 10 μl cells with 15 μl TBS buffer supplemented with 4% bovine serum albumin, 20% (v/v) viability staining solution7-AAD (Invitrogen, Cat#00-6993-50), and ANTI-FLAG M2-FITC antibody (Sigma, F4049; 1:100 diluted by TBS) at 4 °C for 20 min. After incubation, 175 μl TBS buffer was added, and the fluorescence signal on the cell surface was detected by an FCM (flow cytometry) reader (Millipore). The cells were diluted with 1× HBSS (Hank’s balanced salt solution) balanced buffer supplemented with 25 mM HEPES, pH 7.4, and seeded onto the 96-well opaque cell culture plates (Beyotime) at a density of 18,000 cells per well by 60 μl. Freshly prepared 50 μM coelenterazine 400a (Nanolight Technologies) was added into the well by 10 μl. After a 5 min equilibration time in the darkness, plates were then read in a Synerg^TM H1 microplate reader (BioTek) with excitation at 395 nm and emission at 410 and 515 nm by serially three times. Then, 30 μl of 3.3× agonists were added into the wells with a gradient final concentration from 10^−4–10^−13 M. Plates were read immediately again by serially five times. Data were processed and analyzed following the method in the literature by using GraphPad Prism 8.0.

NMU2 H43E = molecular target: T2, NMU2 H43E (Homo sapiens, UniProt Q9GZQ4, H43E); assay: TRUPATH assay, NMU2 mutant H43E; format: cell-based; details: H43E
T2 construct: HA signal peptide (N); expressed in transfected cells; host or cells: HEK 293F
T2 sequence (Q9GZQ4 whole entry H43E): as the sequence (Q9GZQ4 whole entry) above, with H43E counted along it
Protocol: as §1

NMU2 H43W = molecular target: T3, NMU2 H43W (Homo sapiens, UniProt Q9GZQ4, H43W); assay: TRUPATH assay, NMU2 mutant H43W; format: cell-based
T3 construct: HA signal peptide (N); expressed in transfected cells; host or cells: HEK 293F
T3 sequence (Q9GZQ4 whole entry H43W): as the sequence (Q9GZQ4 whole entry) above, with H43W counted along it
Protocol: as §1

NMU2 A302H = molecular target: T4, NMU2 A302H (Homo sapiens, UniProt Q9GZQ4, A302H); assay: TRUPATH assay, NMU2 mutant A302H; format: cell-based
T4 construct: HA signal peptide (N); expressed in transfected cells; host or cells: HEK 293F
T4 sequence (Q9GZQ4 whole entry A302H): as the sequence (Q9GZQ4 whole entry) above, with A302H counted along it
Protocol: as §1

NMU2 N306Q = molecular target: T5, NMU2 N306Q (Homo sapiens, UniProt Q9GZQ4, N306Q); assay: TRUPATH assay, NMU2 mutant N306Q; format: cell-based
T5 construct: HA signal peptide (N); expressed in transfected cells; host or cells: HEK 293F
T5 sequence (Q9GZQ4 whole entry N306Q): as the sequence (Q9GZQ4 whole entry) above, with N306Q counted along it
Protocol: as §1

NMU2 N306W = molecular target: T6, NMU2 N306W (Homo sapiens, UniProt Q9GZQ4, N306W); assay: TRUPATH assay, NMU2 mutant N306W; format: cell-based
T6 construct: HA signal peptide (N); expressed in transfected cells; host or cells: HEK 293F
T6 sequence (Q9GZQ4 whole entry N306W): as the sequence (Q9GZQ4 whole entry) above, with N306W counted along it
Protocol: as §1

NMU2 [2] = molecular target: T1, NMU2; parameters: method as in PMID 24999562, PMID 25815150, PMID 28548497; details: potency for NMU2; cited from earlier work
NMU1 = system: NMU1; parameters: method as in PMID 24999562, PMID 25815150, PMID 28548497; details: cited from earlier work
[3] = read-out: pEC50 mean±SEM (converted)
[4] = earlier manuscript version, peer review file

EC50 ratio EC50(mutant)/EC50(WT) (NMU2 [1]): 1
Span (window between Emax and minimal agonist response) (NMU2 [1]): 100±5 % of WT
EC50 (NMU2 [1]; agonist-induced G protein activation, HEK 293F, read-out: EC50): 88 nM
EC50 (NMU2 [1]; [3]): 89.1 nM
EC50 ratio EC50(mutant)/EC50(WT) (NMU2 H43E): 34 and ~30
Span (window between Emax and minimal agonist response) (NMU2 H43E): 68±10 % of WT
G protein activation (TRUPATH), dose-response point (NMU2 H43E; Log [agonist] M -4): 54.8659 and 69.4702 and 83.0554
reduction of potency (NMU2 H43E; [4]): about 40 fold
EC50 (NMU2 H43E; read-out: EC50): 3010 nM
EC50 (NMU2 H43E; [3]): 3020 nM
EC50 ratio EC50(mutant)/EC50(WT) (NMU2 H43W): 4
Span (window between Emax and minimal agonist response) (NMU2 H43W): 113±8 % of WT
EC50 (NMU2 H43W; read-out: EC50): 328 nM
EC50 (NMU2 H43W; [3]): 331 nM
EC50 ratio EC50(mutant)/EC50(WT) (NMU2 A302H): 10
Span (window between Emax and minimal agonist response) (NMU2 A302H): 57±12 % of WT
EC50 (NMU2 A302H; read-out: EC50): 890 nM
EC50 (NMU2 A302H; [3]): 891 nM
EC50 ratio EC50(mutant)/EC50(WT) (NMU2 N306Q): 34 and ~30
Span (window between Emax and minimal agonist response) (NMU2 N306Q): 103±8 % of WT
reduction of potency (NMU2 N306Q; [4]): about 40 fold
EC50 (NMU2 N306Q; read-out: EC50): 3030 nM
EC50 (NMU2 N306Q; [3]): 3020 nM
CPN 116–induced G protein activation of NMU2 (NMU2 N306W; Log [CPN 116] M -4, single replicates): -39.3918 and -40.1037 and -18.108
CPN 116–induced G protein activation of NMU2 (NMU2 N306W; Log [CPN 116] M -5, single replicates): -35.463 and -12.1167 and -20.5536
CPN 116–induced G protein activation of NMU2 (NMU2 N306W; Log [CPN 116] M -6, single replicates): -13.9347 and -29.6651
CPN 116–induced G protein activation of NMU2 (NMU2 N306W; Log [CPN 116] M -7, single replicates): -42.0373 and -15.8433 and -22.9653
CPN 116–induced G protein activation of NMU2 (NMU2 N306W; Log [CPN 116] M -8, single replicates): -43.5336 and -18.6278
CPN 116–induced G protein activation of NMU2 (NMU2 N306W; Log [CPN 116] M -9, single replicates): -58.7333 and -19.6009 and -22.809
CPN 116–induced G protein activation of NMU2 (NMU2 N306W; Log [CPN 116] M -10, single replicates): -49.0206 and -44.7808 and -17.6453
CPN 116–induced G protein activation of NMU2 (NMU2 N306W; Log [CPN 116] M -11, single replicates): -6.043 and -10.0645 and -20.5889
SMILES: CC(C)C[C@H](NC(=O)CCC1CCCCC1)C(=O)N[C@@H](CC(C)C)C(=O)N[C@@H](CN)C(=O)N1CCC[C@H]1C(=O)N[C@@H](CCCNC(=N)N)C(=O)N[C@@H](CC(N)=O)C(N)=O [CPN 116] ({Propanoyl(3-cHex)}-LL[Dap]PRN-NH2; N-terminus assumed)
CPN 116–induced G protein activation of NMU2 (NMU2 [1]; Log [CPN 116] M -4): 124.271 and 109.389 and 104.836 and 98.7874 and 114.415 and 92.1354 and 98.8516 and 96.9846 and 129.092
CPN 116–induced G protein activation of NMU2 (NMU2 [1]; Log [CPN 116] M -5): 81.0668 and 90.6105 and 83.9029 and 70.7281 and 97.1643 and 105.033 and 97.1976 and 102.389 and 91.9125
CPN 116–induced G protein activation of NMU2 (NMU2 [1]; Log [CPN 116] M -6): 123.537 and 69.0158 and 98.755 and 109.275 and 101.527 and 90.1601 and 88.5457 and 99.457 and 76.0968 and 66.3324
CPN 116–induced G protein activation of NMU2 (NMU2 [1]; Log [CPN 116] M -7): 58.8924 and 38.0271 and 51.0097 and 20.9117 and 20.6245 and 99.7769 and 42.6311 and 75.7485 and 28.5134 and 61.3823
CPN 116–induced G protein activation of NMU2 (NMU2 [1]; Log [CPN 116] M -8): 61.8786 and 27.1582 and 20.07 and 29.5038 and 13.1206 and 29.1828 and -9.383 and 21.3054 and 11.8363 and 17.7072
CPN 116–induced G protein activation of NMU2 (NMU2 [1]; Log [CPN 116] M -9): 19.9062 and -6.919 and 9.364 and -2.803 and 20.3603 and -10.3226 and 21.8665 and -7.72 and -11.2532 and 17.6747
CPN 116–induced G protein activation of NMU2 (NMU2 [1]; Log [CPN 116] M -10): 41.8708 and 6.201 and -13.4099 and 3.958 and 1.871 and 13.514 and 0.4422 and 6.532 and 9.793 and -10.7717
CPN 116–induced G protein activation of NMU2 (NMU2 [1]; Log [CPN 116] M -11): -45.0449 and -20.5889 and -0.1978 and -15.7237 and -24.3777 and 3.048 and -8.327 and 4.148 and -6.043 and -10.0645
G protein activation (TRUPATH), dose-response point (NMU2 H43W; Log [agonist] M -4): 70.3208 and 118.253 and 100.643 and 93.456
G protein activation (TRUPATH), dose-response point (NMU2 H43W; Log [agonist] M -5): 117.081 and 116.835 and 123.722 and 102.53
G protein activation (TRUPATH), dose-response point (NMU2 N306Q; Log [agonist] M -4): 92.4083 and 98.1528 and 132.361 and 88.4481
G protein activation (TRUPATH), dose-response point (NMU2 N306Q; Log [agonist] M -5): 86.2104 and 99.9961 and 102.907 and 71.1922
EC50 (NMU2 [2]): 6.6 nM
activation of NMU1 (NMU1): without obvious activation of NMU1
